Laboratory results: patent US8188077B2, “Apoptosis-inducing agents for the treatment of cancer and immune and autoimmune diseases” (Abbott Laboratories, priority 2010, dated 2012)

These compounds were tested against T1, Bcl-2 protein (Homo sapiens, UniProt P10415, DELINS35-91DVEENRTEAPEGTESE, form not given) (assay: Bcl-2 fluorescence polarization assay (FPA) binding). Conditions: 10 nM Bcl-2 protein, 1 nM fluorescein-labeled BAX peptide, room temperature, read-out: Bcl-2 FPA 11pt Ki.
T1 construct: fused on or other part: Bcl-xL (Q07817) residues 29-44 stand in place of Bcl-2's own unstructured loop 35-91; The C-terminal membrane anchor (208-239) is absent
T1 sequence (P10415 with tags, fused parts or gaps with the stated changes): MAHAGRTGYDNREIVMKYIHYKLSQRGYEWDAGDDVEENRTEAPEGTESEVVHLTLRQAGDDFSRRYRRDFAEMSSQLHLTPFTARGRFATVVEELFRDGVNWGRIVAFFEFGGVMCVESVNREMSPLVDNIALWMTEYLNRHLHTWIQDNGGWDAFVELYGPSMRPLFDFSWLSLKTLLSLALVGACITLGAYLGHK
Protocol: Assays for the inhibition of Bcl-2 were performed in 96-well microtiter plates. Compounds of the instant invention were diluted in DMSO to concentrations between […] and 10 pM and introduced into each well of the plate. A mixture totaling 125 µL per well of assay buffer (20 mM phosphate buffer (pH 7.4), 1 mM EDTA, 0.05% PF-68), 10 nM of Bcl-2 protein (prepared according to the procedure described in PNAS 2001, 98, 3012-3017), 1 nM fluorescein-labeled BAX peptide (prepared in-house), and the DMSO solution of the compound of the instant invention was shaken for 2 minutes and placed in a LJL Analyst (LJL Bio Systems, CA. Polarization was measured at room temperature using a continuous Fluorescein lamp (excitation 485 nm, emission 530 nm). Ki values were calculated using Microsoft Excel.
In the case of `C[C@@H]1[C@H]2C[C@@H](C[C@H]1Nc1ccc(S(=O)(=O)NC(=O)c3ccc(N4CCN(Cc5ccccc5-c5ccc(Cl)cc5)CC4)cc3)cc1[N+](=O)[O-])C2(C)C` [Example 1, 4-{4-[(4′-chlorobiphenyl-2-yl)methyl]piperazin-1-yl}-N-[(3-nitro-4-{[(1R,2R,3R,5S)-2,6,6-trimethylbicyclo[3.1.1]hept-3-yl]amino}phenyl)sulfonyl]benzamide], the Ki is reported as 174 nM.
For `CC(=O)N(C1CCN(c2ccc(C(=O)NS(=O)(=O)c3ccc(NCC4CCCCC4)c([N+](=O)[O-])c3)cc2)CC1)[C@H]1C[C@H]2C[C@@H]([C@@H]1C)C2(C)C` [Example 2, 4-(4-{acetyl[(1S,2S,3S,5R)-2,6,6-trimethylbicyclo[3.1.1]hept-3-yl]amino}piperidin-1-yl)-N-({4-[(cyclohexylmethyl)amino]-3-nitrophenyl}sulfonyl)benzamide], the Ki was 220 nM.
Work on `C[C@@H]1[C@@H](N(C(=O)c2ccccc2)C2CCN(c3ccc(C(=O)NS(=O)(=O)c4ccc(NCC5CCCCC5)c([N+](=O)[O-])c4)cc3)CC2)C[C@H]2C[C@@H]1C2(C)C` [Example 3, 4-(4-{benzoyl[(1S,2S,3S,5R)-2,6,6-trimethylbicyclo[3.1.1]hept-3-yl]amino}piperidin-1-yl)-N-({4-[(cyclohexylmethyl)amino]-3-nitrophenyl}sulfonyl)benzamide] yielded a Ki of 65 nM.
Compound `C[C@@H]1[C@@H](Nc2cccc(-c3ccc(C(=O)NS(=O)(=O)c4ccc(NCC5CCCCC5)c([N+](=O)[O-])c4)cc3)c2)C[C@H]2C[C@@H]1C2(C)C` [Example 4, N-({4-[(cyclohexylmethyl)amino]-3-nitrophenyl}sulfonyl)-3′-{[(1S,2S,3S,5R)-2,6,6-trimethylbicyclo[3.1.1]hept-3-yl]amino}biphenyl-4-carboxamide] has a Ki of 191 nM.
In the case of `C[C@@H]1[C@@H](N(C(=O)Cc2ccccc2)C2CCN(c3ccc(C(=O)NS(=O)(=O)c4ccc(NCC5CCCCC5)c([N+](=O)[O-])c4)cc3)CC2)C[C@H]2C[C@@H]1C2(C)C` [Example 5, N-({4-[(cyclohexylmethyl)amino]-3-nitrophenyl}sulfonyl)-4-(4-{(phenylacetyl)[(1S,2S,3S,5R)-2,6,6-trimethylbicyclo[3.1.1]hept-3-yl]amino}piperidin-1-yl)benzamide], the Ki is reported as 59.2 nM.
`C[C@@H]1[C@@H](Nc2ccc(-c3ccc(C(=O)NS(=O)(=O)c4ccc(NCC5CCCCC5)c([N+](=O)[O-])c4)cc3)cc2)C[C@H]2C[C@@H]1C2(C)C` [Example 6, N-({4-[(cyclohexylmethyl)amino]-3-nitrophenyl}sulfonyl)-4′-{[(1S,2S,3S,5R)-2,6,6-trimethylbicyclo[3.1.1]hept-3-yl]amino}biphenyl-4-carboxamide] was tested, and the Ki was 155 nM.
Work on `C[C@@H]1[C@@H](N(CCCc2ccccc2)c2ccc(-c3ccc(C(=O)NS(=O)(=O)c4ccc(NCC5CCCCC5)c([N+](=O)[O-])c4)cc3)cc2)C[C@H]2C[C@@H]1C2(C)C` [Example 7, N-({4-[(cyclohexylmethyl)amino]-3-nitrophenyl}sulfonyl)-4′-{(3-phenylpropyl)[(1S,2S,3S,5R)-2,6,6-trimethylbicyclo[3.1.1]hept-3-yl]amino}biphenyl-4-carboxamide] yielded a Ki of 1260 nM.
With `O=C(NS(=O)(=O)c1ccc(NCC2CCCCC2)c([N+](=O)[O-])c1)c1ccc(N2CCC3CC2CN3CC23CC4CC(CC(C4)C2)C3)cc1` (stereo not shown) [Example 8, 4-{6-[adamantan-1-ylmethyl]-2,6-diazabicyclo[3.2.1]oct-2-yl}-N-({4-[(cyclohexylmethyl)amino]-3-nitrophenyl}sulfonyl)benzamide] the Ki was 84.6 nM.
In the case of `C[C@@H]1[C@@H](N(C(=O)CCc2ccccc2)C2CCN(c3ccc(C(=O)NS(=O)(=O)c4ccc(N[C@H](CCN5CCOCC5)CSc5ccccc5)c(S(=O)(=O)C(F)(F)F)c4)cc3)CC2)C[C@H]2C[C@@H]1C2(C)C` [Example 9, N-[(4-{[(2R)-4-(morpholin-4-yl)-1-(phenylthio)butan-2-yl]amino}-3-[(trifluoromethyl)sulfonyl]phenyl)sulfonyl]-4-(4-{(3-phenylpropanoyl)[(1S,2S,3S,5R)-2,6,6-trimethylbicyclo[3.1.1]hept-3-yl]amino}piperidin-1-yl)benzamide], the Ki is reported as < 20 nM.
`O=C(NS(=O)(=O)c1ccc(N[C@H](CCN2CCOCC2)CSc2ccccc2)c([N+](=O)[O-])c1)c1ccc(N2CCN(CC34CC5CC(CC(C5)C3)C4)CC2)cc1` [Example 10, 4-{4-[adamantan-1-ylmethyl]piperazin-1-yl}-N-[(4-{[(2R)-4-(morpholin-4-yl)-1-(phenylthio)butan-2-yl]amino}-3-nitrophenyl)sulfonyl]benzamide] was tested, and the Ki was < 20 nM.
In the case of `O=C(NS(=O)(=O)c1ccc(NCC2CCCCC2)c([N+](=O)[O-])c1)c1ccc(N2C[C@@H]3C[C@H]2CN3CC23CC4CC(CC(C4)C2)C3)cc1` [Example 11, 4-{(1S,4S)-5-[adamantan-1-ylmethyl]-2,5-diazabicyclo[2.2.1]hept-2-yl}-N-({4-[(cyclohexylmethyl)amino]-3-nitrophenyl}sulfonyl)benzamide], the Ki is reported as 1300 nM.
`CC12CC3CC(Br)(C1)CC(CN1CCN(c4ccc(C(=O)NS(=O)(=O)c5ccc(NCC6CCCCC6)c([N+](=O)[O-])c5)cc4)CC1)(C3)C2` (stereo not shown) [Example 12, 4-(4-{[3-bromo-5-methyladamantan-1-yl]methyl}piperazin-1-yl)-N-({4-[(cyclohexylmethyl)amino]-3-nitrophenyl}sulfonyl)benzamide] was tested, and the Ki was 304 nM.
Work on `CC12CC3CC(C)(C1)CC(CN1CCN(c4ccc(C(=O)NS(=O)(=O)c5ccc(NCC6CCCCC6)c([N+](=O)[O-])c5)cc4)CC1)(C3)C2` [Example 13, N-({4-[(cyclohexylmethyl)amino]-3-nitrophenyl}sulfonyl)-4-(4-{[3,5-dimethyladamantan-1-yl]methyl}piperazin-1-yl)benzamide] yielded a Ki of 608 nM.
`CC12CC(CN(c3ccc(S(=O)(=O)NC(=O)c4ccc(N5CCN(Cc6ccccc6-c6ccc(Cl)cc6)CC5)cc4)cc3)C1=O)C2` [Example 14, 4-{4-[(4′-chlorobiphenyl-2-yl)methyl]piperazin-1-yl}-N-{[4-(1-methyl-2-oxo-3-azabicyclo[3.1.1]hept-3-yl)phenyl]sulfonyl}benzamide] was tested, and the Ki was 47.4 nM.
With `CC1(C)[C@H]2C=C(c3ccccc3CN3CCN(c4ccc(C(=O)NS(=O)(=O)c5ccc(NCC6CCOCC6)c([N+](=O)[O-])c5)cc4)CC3)[C@]1(C)CC2` [Example 15, N-({3-nitro-4-[(tetrahydro-2H-pyran-4-ylmethyl)amino]phenyl}sulfonyl)-4-(4-{2-[(1R,4R)-1,7,7-trimethylbicyclo[2.2.1]hept-2-en-2-yl]benzyl}piperazin-1-yl)benzamide] the Ki was < 20 nM.
`O=C(NS(=O)(=O)c1ccc(NCC2CCOCC2)c([N+](=O)[O-])c1)c1ccc(N2CCN(Cc3ccccc3NC3CC4CC3C3CCCC43)CC2)cc1` (stereo not shown) [Example 16] gave a Ki of 39.7 nM.
`C[C@H]1[C@H]2C[C@H](CC2Nc2ccccc2CN2CCN(c3ccc(C(=O)NS(=O)(=O)c4ccc(NCC5CCOCC5)c([N+](=O)[O-])c4)cc3)CC2)C1(C)C` (stereo partly drawn) [Example 17, N-({3-nitro-4-[(tetrahydro-2H-pyran-4-ylmethyl)amino]phenyl}sulfonyl)-4-[4-(2-{[(1R,4R,6S)-5,5,6-trimethylbicyclo[2.2.1]hept-2-yl]amino}benzyl)piperazin-1-yl]benzamide] gave a Ki of 30.1 nM.
For `CC1(C)[C@H]2CCC(Nc3ccccc3CN3CCN(c4ccc(C(=O)NS(=O)(=O)c5ccc(NCC6CCOCC6)c([N+](=O)[O-])c5)cc4)CC3)[C@@H]1C2` (stereo partly drawn) [Example 18, 4-[4-(2-{[(1R,5S)-6,6-dimethylbicyclo[3.1.1]hept-2-yl]amino}benzyl)piperazin-1-yl]-N-({3-nitro-4-[(tetrahydro-2H-pyran-4-ylmethyl)amino]phenyl}sulfonyl)benzamide], the Ki was < 20 nM.
For `CC1(C)[C@H]2CC(CN3CCN(c4ccc(C(=O)NS(=O)(=O)c5ccc(NCC6CCCCC6)c([N+](=O)[O-])c5)cc4)CC3)=C(c3ccc(Cl)cc3)[C@@H]1C2` [Example 19, 4-(4-{[(1R,5R)-2-(4-chlorophenyl)-6,6-dimethylbicyclo[3.1.1]hept-2-en-3-yl]methyl}piperazin-1-yl)-N-({4-[(cyclohexylmethyl)amino]-3-nitrophenyl}sulfonyl)benzamide], the Ki was 603 nM.
For `CC1(C)CCC(NCC2C3CC4CC(C3)CC2C4)C(CN2CCN(c3ccc(C(=O)NS(=O)(=O)c4ccc(NCC5CCOCC5)c([N+](=O)[O-])c4)cc3)CC2)C1` (stereo not shown) [Example 20, 4-{4-[(2-{[adamantan-2-ylmethyl]amino}-5,5-dimethylcyclohexyl)methyl]piperazin-1-yl}-N-({3-nitro-4-[(tetrahydro-2H-pyran-4-ylmethyl)amino]phenyl}sulfonyl)benzamide], the Ki was > 51900 nM.
Work on `C[C@@H]1[C@@H](NC2CCC(C)(C)CC2CN2CCN(c3ccc(C(=O)NS(=O)(=O)c4ccc(NCC5CCOCC5)c([N+](=O)[O-])c4)cc3)CC2)C[C@@H]2C[C@H]1C2(C)C` (stereo partly drawn) [Example 21, 4-{4-[(5,5-dimethyl-2-{[(1R,2S,3S,5S)-2,6,6-trimethylbicyclo[3.1.1]hept-3-yl]amino}cyclohexyl)methyl]piperazin-1-yl}-N-({3-nitro-4-[(tetrahydro-2H-pyran-4-ylmethyl)amino]phenyl}sulfonyl)benzamide] yielded a Ki of 5600 nM.
`O=C(NS(=O)(=O)c1ccc(NCC2CCOCC2)c([N+](=O)[O-])c1)c1ccc(N2CCN(Cc3cc([N+](=O)[O-])ccc3N3CC4CCC(CC4)C3)CC2)cc1` [Example 22, 4-{4-[2-(3-azabicyclo[3.2.2]non-3-yl)-5-nitrobenzyl]piperazin-1-yl}-N-({3-nitro-4-[(tetrahydro-2H-pyran-4-ylmethyl)amino]phenyl}sulfonyl)benzamide] gave a Ki of 31.4 nM.
